Test results taken from patent US9994865B2, “PEG-Prom mediated surface expression of avidin/streptavidin” (The Johns Hopkins University, priority 2013, dated 2018).

B1: MDA-7/IL-24: melanoma differentiation associated gene-7/Interleukin-24, immunomodulatory cytokine, delivered by adenovirus (protein, UniProt Q13007 52-206, looked up)
Interleukin-24: QEFHFGPCQVKGVVPQKLWEAFWAVKDTMQAQDNITSARLLQQEVLQNVSDAESCYLVHTLLEFYLKTVFKNYHNRTVEVRTLKSFSTLANNFVLIVSQLQPSQENEMFSIRDSAHRRFLLFRRAFKQLDVEAALTKALGEVDILLTWMQKFYKL
modifications: adenovirus-delivered
notes: melanoma differentiation associated gene-7/Interleukin-24, immunomodulatory cytokine, delivered by adenovirus

Assays:
[1] = tested on: avidin-expressing and non-expressing tumor cells; details: expected outcome; LD50 against expressing vs. non-expressing cells
Source text: The LD50 against avidin-expressing and non-expressing tumor cells of each will be evaluated, in vitro. The maximum tolerated dose and anti-tumor efficacy of each will also be evaluated in PCa models. […] Upon necropsy, tumor xenografts will be pathologically analyzed to evaluate cell killing. […] Tumor size will be measured with calipers, or with BLI in the case of g- or fLuc-expressing cells.

[2] = tested on: tumors and metastases; details: prior studies, adenovirus-based oncolytic gene delivery, nude mice; cited from earlier work

Molecule	specificity of cell killing to avidin expressing cells [1]	effect on tumors and metastases [2]
^90Y-CHX-A-DTPA-biotin [^90Y conjugate]	less specific to avidin expressing cells	–
^213Bi-CHX-A-DTPA-biotin [^213Bi conjugate]	highly specific to expressing cells	–
B1	–	complete eradication of tumors and metastases
